Laboratory results from PMC12881674, “Activation of TRPV3 channels in bladder cancer cells stimulates ATP release” (Molecular Pharmacology, 2025).

Target: T1, mouse TRPV3 (Mus musculus, UniProt Q8K424)
T1 construct: expressed in transfected cells; host or cells: HEK293
T1 sequence (Q8K424 1-791): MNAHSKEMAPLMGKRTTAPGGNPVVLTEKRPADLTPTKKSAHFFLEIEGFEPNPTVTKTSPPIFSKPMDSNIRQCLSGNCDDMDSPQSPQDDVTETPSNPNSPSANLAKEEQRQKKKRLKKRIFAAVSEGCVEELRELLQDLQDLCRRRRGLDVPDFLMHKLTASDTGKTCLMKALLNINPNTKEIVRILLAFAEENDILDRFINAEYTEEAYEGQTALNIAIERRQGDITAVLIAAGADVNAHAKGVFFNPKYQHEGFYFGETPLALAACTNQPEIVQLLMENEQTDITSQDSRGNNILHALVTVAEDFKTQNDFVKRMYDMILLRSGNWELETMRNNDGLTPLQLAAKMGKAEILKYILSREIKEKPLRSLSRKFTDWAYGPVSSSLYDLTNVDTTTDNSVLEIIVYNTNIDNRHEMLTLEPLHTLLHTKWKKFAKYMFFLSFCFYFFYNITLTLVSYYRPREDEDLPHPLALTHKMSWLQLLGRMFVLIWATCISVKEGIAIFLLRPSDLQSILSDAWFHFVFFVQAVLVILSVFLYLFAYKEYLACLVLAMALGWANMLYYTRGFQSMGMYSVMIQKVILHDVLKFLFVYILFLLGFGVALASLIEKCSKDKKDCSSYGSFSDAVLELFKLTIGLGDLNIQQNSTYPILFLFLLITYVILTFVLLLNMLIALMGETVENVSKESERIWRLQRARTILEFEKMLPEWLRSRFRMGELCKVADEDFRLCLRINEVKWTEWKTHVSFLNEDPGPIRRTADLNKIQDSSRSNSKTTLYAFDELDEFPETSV
Experiment: fluo-4 fluorometric Ca2+ assay, concentration-response, HEK cells expressing mouse TRPV3
Assay type: cell-based
Conditions: HEK cells expressing mouse TRPV3, fluo-4, room temperature, mean ± SD back-transformed from log space, n=5; read-out: EC50 for mouse TRPV3 activation
From the text: KU-19-19 (DSMZ no. ACC 395), CAL-29 (DSMZ no. ACC 515), 647-V (DSMZ no. ACC 414), RT-4 (DSMZ no. ACC 412), and RT-112 (DSMZ no. ACC 418) bladder cancer cell lines were obtained from the Leibniz Institute DSMZ (German Collection of Microorganisms and Cell Cultures). Human TRPV3 (NM_145068, purchased from OriGene) and mouse TRPV3 (NM_001371006), rat TRPV1, mouse TRPV2, mouse TRPV4, human TRPM2, human TRPM8, and human TRPA1 were stably transfected in HEK293 cells as described before.[27] […]
All fluorometric Ca^2+ assays were performed in HBS buffer at room temperature. […] For the primary compound screening and the generation of concentration-response analyses, a robotic liquid handling station (Freedom Evo 150; Tecan) with a built-in custom-made fluorescence plate imager was used. […] Fluorescence was excited using a 470-nm light-emitting diode, and emitted light was imaged through a 515-nm–long pass filter with a cooled Zyla 5.5 camera (Andor). Fluorescence was recorded and processed under the control of the μ-Manager 2.0 gamma software (https://micro-manager.org.[28]). After recording baseline fluorescence, compounds were dispensed into the wells via the liquid handling device. […] For further analysis, fluorescence signals were calculated for each well, corrected for background intensities and normalized to the initial signals. […]

EC50: 2000 ± 1400 nM
Structure (SMILES): COC(=O)C12CN(Cc3ccccc3)CC1(C(=O)OC)CN(Cc1ccccc1)C2 (stereo not shown) [AV3-1]
